According to patent publication US20040142821A1, “Pesticide composition comprising malononitrile compounds” (priority 2001, published 2004):

How the values were obtained:
[1] = test system: Cullex pipiens pallens; assay: whole plant or invertebrate; settings: 24 h
Method: In 100 ml of ion-exchanged water, the test liquid had been prepared as described above, was added dropwise in an amount of 0.7 ml (the concentration of active ingredient was 3.5 ppm). Twenty final-instar larvae of Cullex pipiens pallens (common mosquito) were set free in the solution. After 1 days, their survival was examined to determine the mortality.

[2] = test system: German cockroach; assay: Pesticidal test against German cockroach, treated filter paper with sucrose bait (Test Example 6); format: in vivo; settings: Blattella germanica, 144 h; 500 ppm test liquid (Formulation Example 5), 0.7 ml on filter paper; two male adults; after 6 days
Description: Two male adults of German cockroach (Blattalla germanica) were set free in the polyethylene cup, which was then kept covered. After 6 days, their survival was examined to determine the mortality.

[3] = test system: Diabrotica undecimpunctata; assay: Pesticidal test against Diabrotica undecimpunctata, treated filter paper (Test Example 4); format: in vivo, Diabrotica undecimpunctata (southern-corn rootworm); settings: 50 ppm test liquid (Formulation Example 1), 1 ml on filter paper; 30 to 50 eggs and one germinated corn seed; 25° C.
Method: One germinated seed of corn and 30 to 50 eggs of Diabrotica undecimpunctata (southern-corn rootworm) was placed on the filter paper in the polyethylene cup, which was then kept covered and left in a room at 25° C. On the 6th day after, the number of surviving larvae of Diabrotica undecimpunctata was examined.

[4] = test system: Musca domestics; assay: Pesticidal test against Musca domestics, treated filter paper with sucrose bait (Test Example 5); format: in vivo; settings: 500 ppm test liquid (Formulation Example 5), 0.7 ml on filter paper, ten female adults, after 24 hours
Method: Ten female adults of Musca domestics (house fly) were set free in the polyethylene cup, which was then kept covered. After 24 hours, their survival was examined to determine the mortality.

## C=CCC(C#N)(C#N)Cc1ccc(Cl)c(Cl)c1 [Compound 23, 2-allyl-2-(3,4-dichlorobenzyl)malononitrile]
[1]
  mortality at 3.5 µg/mL: 100%
[2]
  mortality at 500 ppm: 100%
[3]
  number of surviving pests on the 6th day after: 0

## C=CCCC(C#N)(C#N)C(C)c1ccc(Cl)cc1 (stereo not drawn) [Compound 10, 2-(3-butenyl)-2-(1-(4-chlorophenyl)ethyl)malononitrile]
[4]
  mortality at 500 ppm: 100%
[1]
  mortality at 3.5 µg/mL: 100%
[2]
  mortality at 500 ppm: 100%
[3]
  number of surviving pests on the 6th day after: 0

## C=CCC(C#N)(C#N)C(c1ccc(Cl)cc1)C(C)C (stereo not drawn) [Compound 3, 2-allyl-2-(1-(4-chlorophenyl)-2-methylpropyl)malononitrile]
[4]
  mortality at 500 ppm: 100%
[1]
  mortality at 3.5 µg/mL: 100%
[2]
  mortality at 500 ppm: 100%
[3]
  number of surviving pests on the 6th day after: 0

## C=CCC(C#N)(C#N)Cc1c(F)c(F)c(F)c(F)c1F [Compound 62, 2-allyl-2-(2,3,4,5,6-pentafluorobenzyl)malononitrile]
other
  melting point: 78.2 °C

## N#CC(C#N)(Cc1ccc(Cl)cc1)C1CCCCC1 [Compound 9, 2-(4-chlorobenzyl)-2-cyclohexylmalononitrile]
[1]
  mortality at 3.5 µg/mL: 100%
[2]
  mortality at 500 ppm: 100%
[3]
  number of surviving pests on the 6th day after: 0

## C=CCC(C#N)(C#N)Cc1ccc(OC(F)(F)F)cc1 [Compound 11, 2-allyl-2-(4-(trifluoromethoxy)benzyl)malononitrile]
[4]
  mortality at 500 ppm: 100%
[1]
  mortality at 3.5 µg/mL: 100%
[2]
  mortality at 500 ppm: 100%
[3]
  number of surviving pests on the 6th day after: 0

## C=CCC(C#N)(C#N)Cc1ccc(C#N)cc1 [Compound 14, 2-allyl-2-(4-cyanobenzyl)malononitrile]
other
  melting point: 81.9 °C

## C=CCC(C#N)(C#N)C(C)(C)c1ccc(Cl)cc1 [Compound 2, 2-allyl-2-(1-(4-chlorophenyl)-1-methylethyl)malononitrile]
[1]
  mortality at 3.5 µg/mL: 100%
[2]
  mortality at 500 ppm: 100%
[3]
  number of surviving pests on the 6th day after: 0

## C=CCC(C#N)(C#N)Cc1ccc(C)cc1 [Compound 77, 2-allyl-2-(4-methylbenzyl)malononitrile]
other
  melting point: 74.5 °C

## CC/C=C\CCC(C#N)(C#N)Cc1ccc(Cl)cc1 [Compound 73, 2-(4-chlorobenzyl)-2-((Z)-3-hexenyl)malononitrile]
other
  melting point: 44.8 °C

## C=CCCC(C#N)(C#N)C(C)c1ccc(OC(F)(F)F)cc1 (stereo not drawn) [Compound 16, 2-(3-butenyl)-2-(1-(4-(trifluoromethoxy)phenyl)ethyl)malononitrile]
[1]
  mortality at 3.5 µg/mL: 100%
[2]
  mortality at 500 ppm: 100%
[3]
  number of surviving pests on the 6th day after: 0

## C=CCC(C#N)(C#N)C(C)c1ccc(Cl)cc1 (stereo not drawn) [Compound 74, 2-allyl-2-(1-(4-chlorophenyl)ethyl)malononitrile]
[4]
  mortality at 500 ppm: 100%
[1]
  mortality at 3.5 µg/mL: 100%
[2]
  mortality at 500 ppm: 100%
[3]
  number of surviving pests on the 6th day after: 0

## C=CCC(C#N)(C#N)Cc1ccc([N+](=O)[O-])cc1 [Compound 50, 2-allyl-2-(4-nitrobenzyl)malononitrile]
other
  melting point: 94.2 °C

## CCC(C#N)(C#N)Cc1ccc(Cl)cc1
other
  melting point: 70.9 °C

## C=CCCC(C#N)(C#N)Cc1ccc(Cl)cc1 [Compound 4, 2-(3-butenyl)-2-(4-chlorobenzyl)malononitrile]
[4]
  mortality at 500 ppm: 100%
[1]
  mortality at 3.5 µg/mL: 100%
[2]
  mortality at 500 ppm: 100%
[3]
  number of surviving pests on the 6th day after: 0

## C=CCC(C#N)(C#N)Cc1ccc(Cl)cc1 [Compound 1, 2-allyl-2-(4-chlorobenzyl)malononitrile]
[4]
  mortality at 500 ppm: 100%
[1]
  mortality at 3.5 µg/mL: 100%
[2]
  mortality at 500 ppm: 100%
[3]
  number of surviving pests on the 6th day after: 0

## C=CCC(C#N)(C#N)C(c1cccc(Cl)c1)C(C)C (stereo not drawn) [Compound 66, 2-allyl-2-(1-(3-chlorophenyl)-2-methylpropyl)malononitrile]
[4]
  mortality at 500 ppm: 100%
[1]
  mortality at 3.5 µg/mL: 100%
[3]
  number of surviving pests on the 6th day after: 0

## C=CCC(C#N)(C#N)Cc1ccc(C(F)(F)F)cc1 [Compound 5, 2-allyl-2-(4-(trifluoromethyl)benzyl)malononitrile]
[1]
  mortality at 3.5 µg/mL: 100%
[2]
  mortality at 500 ppm: 100%
[3]
  number of surviving pests on the 6th day after: 0
